Assay results: patent publication US20240081377A1, “USING ORGANOIDS AND/OR SPHEROIDS TO CULTIVATE MEAT” (Orbillion Bio, Inc., priority 2020, published 2024)

How the values were obtained:
[1] = test system: spheroids; assay: Spheroid expansion (spheroid diameter) following recombinant growth factor treatment; assay type: cell-based; conditions: wells 300 μm in diameter, 3 days after treatment
Text: (§1) FIG. 20A to FIG. 20B illustrates spheroid diameter of cells cultured in wells measuring 900 μm in diameter for 12 days following growth factor treatment with fibroblast growth factor (FGF), hepatocyte growth factor (HGF), and insulin-like growth factor (IGF). More specifically, FIG. 20A depicts spheroid diameter in and FIG. 20B depicts spheroid diameter as a percentage of size increase as compared to control.
as §1, with “21A” for “20A”, “21B depicts” for “20B illustrates”, “300” for “900”, “21B” for “20B”

[2] = test system: A549 spheroids; assay: On-chip drug toxicity screening of A549 spheroids (dye exclusion assay, Hoechst / ethidium homodimer-1); assay type: cell-based, human; conditions: A549 spheroids of all sizes (300-1000 μm), different concentrations, 24 hours
Description: A549 cells were seeded at a concentration of 1×10^6 cells per ml and cultivated for three days under standard cell culture conditions under bi-directional flow (e.g. using a rocking device). Stock solutions of 10 mM cisplatin (Sigma-Aldrich, Austria) in DMSO and 10 mM doxorubicin (Sigma-Aldrich, Austria) in PBS were prepared. Doxorubicin and cisplatin were dissolved in cell culture medium to yield concentrations of 0.5, 1, 5, 10, 25, 50 and 500 μM for the treatment of A549 spheroids. Cell culture medium within the channels of the devices was replaced with drug containing medium and incubated for 24 hours prior to cell death analyses. One channel on a separate device was used as an untreated control. […] Raw fluorescence signals were processed and dose-response curves were generated by Sigmoidal-4PL non-linear regression analysis.
Live A549 cell spheroids of different sizes (300 μm, 500 μm, 700 μm, 900 μm, 1000 μm in diameter) were stained with Hoechst; blue and Ethidium homodimer-1; red and treated with different concentrations (100 μM, 10 μM and 1 μM) of CIS, DOX, and CIS:DOX to screen drug toxicity for up to 24 hours following drug treatment. […] Viability of live human A549 cell spheroids of different sizes (measured as a % of the untreated control) was calculated as a function of chemotherapy drug treatment concentration (CIS, DOX, and CIS:DOX). […]

Compound	spheroid diameter, size increase as compared to control [1]	viability of A549 cell spheroids (measured as a % of the untreated control) [2]
HGF: recombinant hepatocyte growth factor	largest difference	
COc1cccc2c1C(=O)c1c(O)c3c(c(O)c1C2=O)C[C@@](O)(C(=O)CO)C[C@@H]3O[C@H]1C[C@H](N)[C@H](O)[C@H](C)O1 [DOX, Doxorubicin]		decreased sharply
